# Laboratory results published in US20040152191A1 (priority 2001, published 2004).
# Assays:
# [1] = system: dendritic cells derived from human monocytes; experiment: Maturation of dendritic cells from human monocytes, surface markers by flow cytometry (Example 1); format: cell-based; settings: D8, TNF-alpha 200 IU/ml
# Method: Peripheral blood is taken from the subject concerned. This blood is then centrifuged for 20 minutes at 200 g so as to diminish the contamination of the peripheral blood cells by platelets. The upper part containing most of the platelets and the plasma is carefully removed before the mononucleated cells are purified by centrifuging them on a Ficoll separation gradient, the density of which is 1.077. The layer of mononucleated cells is recovered, then washed twice with PBS buffer and deposited on a gradient containing 4 discontinuous densities of Percoll in order to isolate the monocytes. This gradient is constituted by concentrations of Percoll in isotonic solution of 75% (6.5 ml), 50.5% (15 ml), 40% (3.5 ml) and 30% (3 ml) in a Dulbecco medium without magnesium nor calcium and containing 5% human serum. 75 to 100 millions of cells are thus deposited in each tube and centrifuged at 1000 g during 25 minutes at 4° C. The low density cells, principally the monocytes, are harvested at the interface between the concentrations 40% and 50.5%, and washed twice with PBS. They are then resuspended in a culture medium, then deposited on culture plates containing 6 wells at a density of 5×10^6 cells per well in a final volume of 3 ml and left to adhere for 1 hour at 37° C. This adhesion step can be replaced by an additional purification of the monocytes by means of a negative purification system using a mixture of monoclonal antibodies combining an anti-CD3, CD7, CD19, CD45A, CD56 and anti-IgG with the aid of a Macs type microbead system (Miltenyi Biotec).
# The cells are then placed in culture in culture wells at 37° C. under 5% CO2. The medium which consists of RPMI contains 200 IU/ml of recombinant human GM-CSF and 500 IU/ml of recombinant human IL-4 in a final volume of 6 ml. On day 3 and day 5, the cultures are renewed by removing 3 ml and adding 3 ml of fresh medium with the cytokines. […] The cells are harvested on day 8, washed and cultivated in the absence of stimulation for a further 3 days.
# At the end of the culture period, the quality of the maturation is assessed by measuring the expression of the molecules CD80, 83, 86, 14, 1a, HLA-DR at the surface of the cells.
# [2] = system: dendritic cells derived from human monocytes; experiment: Effect of LCOS 1013 on maturation of dendritic cells derived from human monocytes, phenotype by flow cytometry (Examples 11, 12); format: cell-based
# From the text: The purified monocytes (more than 90%) were placed in culture in RPMI medium containing 10% AB human serum in the presence of growth factors GM-CSF (200 U/ml) and IL-4 (500 U/ml) for 6 days in order to induce the differentiation of the monocytes into immature dendritic cells.
# The phenotype of the cells thus generated (after 8 days of culture) was examined by flow cytometry. The expression of the marker specific for maturation of the dendritic cells (CD83), of the co-stimulatory molecules CD80, CD86, CD40, of the adhesion molecule CD54, of the class II HLA-DR molecule of the major histocompatibility complex was analyzed. The expression of the CD1a molecule, specific marker of the Langerhans cells, immature dendritic cells, was also tested.
# [3] = Donor 1, TNF-α 200 U/ml or LCOS 1013 25 μg/ml for 48 hours
# [4] = Donor 2, TNF-α 200 U/ml or LCOS 1013 25 μg/ml for 48 hours
# [5] = Donor 3, TNF-α 200 U/ml or LCOS 1013 25 μg/ml for 48 hours
# [6] = Example 12, single donor, TNF-α 200 U/ml
substance,measurement,setting,value
TNF-α,"CD14, % of labelled cells",[1]; experiment a,0.87%
same,"CD40, MFI",[1]; experiment a,1603
same,"CD54, % of labelled cells",[1]; experiment a,97.4%
same,"CD54, MFI",[1]; experiment a,295
same,"CD80, % of labelled cells",[1]; experiment a,62.1%
same,"CD80, MFI",[1]; experiment a,129
same,"CD83, % of labelled cells",[1]; experiment a,84.5%
same,"CD83, MFI",[1]; experiment a,173
same,"CD86, % of labelled cells",[1]; experiment a,98.8%
same,"CD86, MFI",[1]; experiment a,326
same,"HLA-DQ, % of labelled cells",[1]; experiment a,84.3%
same,"HLA-DQ, MFI",[1]; experiment a,157
same,"HLA-DR, % of labelled cells",[1]; experiment a,98.9%
same,"HLA-DR, MFI",[1]; experiment a,1225
same,"CD1a, % of labelled cells",[1]; experiment b,0.21%
same,"CD14, % of labelled cells",[1]; experiment b,0.61%
same,"CD40, % of labelled cells",[1]; experiment b,99.6%
same,"CD40, MFI",[1]; experiment b,1728
same,"CD54, % of labelled cells",[1]; experiment b,95.6%
same,"CD54, MFI",[1]; experiment b,255
same,"CD80, % of labelled cells",[1]; experiment b,70.5%
same,"CD80, MFI",[1]; experiment b,93.5
same,"CD83, % of labelled cells",[1]; experiment b,89.5%
same,"CD83, MFI",[1]; experiment b,196
same,"CD86, % of labelled cells",[1]; experiment b,99.5%
same,"CD86, MFI",[1]; experiment b,273
same,"HLA-DQ, % of labelled cells",[1]; experiment b,84.2%
same,"HLA-DQ, MFI",[1]; experiment b,183
same,"HLA-DR, % of labelled cells",[1]; experiment b,99.1%
same,"HLA-DR, MFI",[1]; experiment b,946
same,"CD14, % of labelled cells",[1]; experiment c,3.27%
same,"CD40, % of labelled cells",[1]; experiment c,99.3%
same,"CD40, MFI",[1]; experiment c,1480
same,"CD54, % of labelled cells",[1]; experiment c,98.2%
same,"CD54, MFI",[1]; experiment c,249
same,"CD83, % of labelled cells",[1]; experiment c,89%
same,"CD83, MFI",[1]; experiment c,166
same,"CD86, % of labelled cells",[1]; experiment c,99.5%
same,"CD86, MFI",[1]; experiment c,284
same,"HLA-DR, % of labelled cells",[1]; experiment c,99.4%
same,"HLA-DR, MFI",[1]; experiment c,694
same,"CD1a, MFI",[2]; [3],28
same,"CD1a, percentage of expression",[2]; [3],13.2%
same,"CD40, MFI",[2]; [3],(1084)
same,"CD40, percentage of expression",[2]; [3],99.4%
same,"CD54, MFI",[2]; [3],(195)
same,"CD54, percentage of expression",[2]; [3],98.4%
same,"CD80, MFI",[2]; [3],(85)
same,"CD80, percentage of expression",[2]; [3],69.7%
same,"CD83, MFI",[2]; [3],(132)
same,"CD83, percentage of expression",[2]; [3],91%
same,"CD86, MFI",[2]; [3],(209)
same,"CD86, percentage of expression",[2]; [3],99.5%
same,"HLA-DR, MFI",[2]; [3],(803)
same,"HLA-DR, percentage of expression",[2]; [3],99.5%
same,"CD1a, MFI",[2]; [4],215
same,"CD1a, percentage of expression",[2]; [4],20.6%
same,"CD40, MFI",[2]; [4],(1104)
same,"CD40, percentage of expression",[2]; [4],99.2%
same,"CD54, MFI",[2]; [4],(355)
same,"CD54, percentage of expression",[2]; [4],97.8%
same,"CD80, MFI",[2]; [4],(89)
same,"CD80, percentage of expression",[2]; [4],55.1%
same,"CD83, MFI",[2]; [4],(221)
same,"CD83, percentage of expression",[2]; [4],88%
same,"CD86, MFI",[2]; [4],(299)
same,"CD86, percentage of expression",[2]; [4],99.1%
same,"HLA-DR, MFI",[2]; [4],(1108)
same,"HLA-DR, percentage of expression",[2]; [4],98.6%
same,"CD1a, expression",[2]; [5],Neg.
same,"CD40, MFI",[2]; [5],(918)
same,"CD40, percentage of expression",[2]; [5],98.7%
same,"CD54, MFI",[2]; [5],(154)
same,"CD54, percentage of expression",[2]; [5],95.9%
same,"CD80, MFI",[2]; [5],(65)
same,"CD80, percentage of expression",[2]; [5],48.7%
same,"CD83, MFI",[2]; [5],(108)
same,"CD83, percentage of expression",[2]; [5],91.8%
same,"CD86, MFI",[2]; [5],(209)
same,"CD86, percentage of expression",[2]; [5],98.5%
same,"HLA-DR, MFI",[2]; [5],(768)
same,"HLA-DR, percentage of expression",[2]; [5],98.9%
same,"CD40, percentage of expression",[2]; [6],83.44%
same,"CD40, second line of cell (MFI)",[2]; [6],289.54
same,"CD54, percentage of expression",[2]; [6],87.12%
same,"CD54, second line of cell (MFI)",[2]; [6],137.49
same,"CD80, percentage of expression",[2]; [6],0.49%
same,"CD80, second line of cell (MFI)",[2]; [6],95.04
same,"CD83, percentage of expression",[2]; [6],70.02%
same,"CD83, second line of cell (MFI)",[2]; [6],65.55
same,"CD86, percentage of expression",[2]; [6],94.44%
same,"CD86, second line of cell (MFI)",[2]; [6],180.81
same,"HLA-DR, percentage of expression",[2]; [6],92.12%
same,"HLA-DR, second line of cell (MFI)",[2]; [6],877.54
